Test results as given in article PMC10035507, “Inhibiting IGF1R-mediated Survival Signaling in Head and Neck Cancer with the Peptidomimetic SSTNIGF1R” (Cancer Research Communications, 2023).
Ends that are not written are not given here.

Key:
UM-SCC47 cells [1] = test system: UM-SCC47 cells
UM-SCC47 cells [2] = assay: Caspase assay (Caspase 3/7-GLO); assay type: cell-based, human; conditions: 24 hours, increasing concentrations of NQD1 up to 30 μmol/L
Procedure: (§1) The activation of stress/apoptosis markers was analyzed as described previously ([17]). Caspase activity was measured in cells in complete culture medium with SSTNIGF1R or ASK inhibitor for 24 hours using Caspase 3/7-GLO in accordance with the manufacturer's instructions.

SCC25 cells [3] = test system: SCC25 cells
HaCaT keratinocytes = assay: Cell proliferation assay (CellTiter-GLO); assay type: cell-based, human; conditions: 4 days, up to 30 μmol/L, n = 3
Procedure: (§2) Cells (1–2 × 10^3/well) were plated in 96-well plates in complete culture medium in the presence or absence of the SSTNIGF1R peptide for 72–120 hours, or alternatively in the presence or absence of the SSTNIGF1R peptide or ASK inhibitor for 24 hours. Cell growth was measured against a standard curve using CellTiter-GLO, in accordance with the manufacturer's instructions.

normal HTE cells = assay: Cell proliferation assay (CellTiter-GLO); assay type: cell-based, human; conditions: 4 days, up to 30 μmol/L, n = 3
Procedure: as §2

SCC90 HNSCC cell line = assay: Cell proliferation assay (CellTiter-GLO); assay type: cell-based, human; conditions: 4 days, up to 30 μmol/L, n = 4
Procedure: as §2

[4] = test system: NOKs (normal oral keratinocytes); assay: Cell proliferation assay (CellTiter-GLO); assay type: cell-based, human; conditions: NOK, 4 days, up to 30 μmol/L, n = 3
Procedure: as §2

UM-SCC1 HNSCC cell line = assay: Cell proliferation assay (CellTiter-GLO); assay type: cell-based, human; conditions: 4 days, up to 30 μmol/L, n = 4
Procedure: as §2

SCC6 HNSCC cell line = assay: Cell proliferation assay (CellTiter-GLO); assay type: cell-based, human; conditions: 4 days, up to 30 μmol/L, n = 4
Procedure: as §2

TU-138 HNSCC cell line = assay: Cell proliferation assay (CellTiter-GLO); assay type: cell-based, human; conditions: 4 days, up to 30 μmol/L, n = 4
Procedure: as §2

UD-SCC2 HNSCC cell line = assay: Cell proliferation assay (CellTiter-GLO); assay type: cell-based, human; conditions: 4 days, up to 30 μmol/L, n = 4
Procedure: as §2

HaCaT keratinocyte = assay: Stress and apoptosis marker antibody array; assay type: cell-based, human; conditions: 16 hours, 30 μmol/L (mSSTNIGF1R per Fig. 4B)
Procedure: as §1

UM-SCC47 cells [5] = assay: Stress and apoptosis marker antibody array; assay type: cell-based, human; conditions: UM-SCC47 lysates; 16 hours, 30 μmol/L (mSSTNIGF1R per Fig. 4B); compared with vehicle
Procedure: as §1

SCC25 cells [6] = assay: Stress and apoptosis marker antibody array; assay type: cell-based, human; conditions: SCC25 lysates; 16 hours, 30 μmol/L (mSSTNIGF1R per Fig. 4B); compared with vehicle
Procedure: as §1

NOK = assay: Stress and apoptosis marker antibody array; assay type: cell-based, human; conditions: 16 hours, 30 μmol/L (mSSTNIGF1R per Fig. 4B)
Procedure: as §1

HTE = assay: Stress and apoptosis marker antibody array; assay type: cell-based, human; conditions: 16 hours, 30 μmol/L (mSSTNIGF1R per Fig. 4B)
Procedure: as §1

Serum IGF1 ELISA = assay type: in vivo, mice; conditions: for IGF1 (ng/mL) ± SD: hSSTNIGF1R delivered by Alzet pumps, ELISA, n = 6
Procedure: (§3) SSTNIGF1R levels in the serum of treated animals were measured in triplicate using an AB Sciex QTrap 5500 mass spectrometry system at the UW School of Pharmacy and quantified by comparison with a standard curve of peptide in mouse serum. IGF1 levels in the serum of animals bearing UW-SCC22 or UW-SCC64 tumors were measured using an ELISA kit from Thermo Fisher Scientific (EMIGF1) and compared with a mouse IGF1 standard according to the manufacturer's instructions.

[7] = target: T1, IGF1R and ITGAV pairing (Sdc1:IGF1R:ITGAV receptor complex) in UM-SCC47 cells (Homo sapiens, UniProt P08069); assay: Proximity ligation assay ITGAV:IGF1R in cultured cells; assay type: cell-based; conditions: UM-SCC47 cells pretreated for 6 hours with 30 μmol/L; 15 images over three experiments
T1 construct: endogenous in cells; host or cells: UM-SCC47
Procedure: (§4) UM-SCC47 cells treated with or without the SSTNIGF1R peptide for 6 hours were fixed in 4% paraformaldehyde, permeabilized in 0.5% Triton X-100 in 1× CMF-PBS (pH 7.4), and blocked for 1 hour at room temperature in a 3% BSA/CMF-PBS solution. Cells were stained with 1 μg/mL anti-Sdc1 polyclonal antibody, 2 μg/mL ITGAV antibody (NBP1-85746), or 4 μg/mL antibody to IGF1R (AF-305-NA) for 1 hour at room temperature, followed by incubation with 4 μg/mL Alexa488-conjugated secondary antibodies for 1 hour at room temperature. The nuclei were stained with 3 μmol/L DAPI (Molecular Probes) in 1× CMF-PBS (pH 7.4) for 10 minutes. For PLA, antibodies against ITGAV and IGF1R were used as described previously, followed by staining with PLA reagents according to the manufacturer's instructions.

[8] = Serum peptide analysis by mass spectrometry; conditions: mouse, in vivo, sc, mice, following sacrifice, 4.3 mg/kg/day by twice weekly subcutaneous injection, triplicate, read-out: steady-state concentration in plasma
Procedure: as §3

[9] = test system: ASK1 (pT845), pp38MAPK, pJNK in UM-SCC47 cells; assay: Temporal activation of ASK1, p38MAPK and JNK; assay type: cell-based, human; conditions: 30 minutes after treatment with 30 μmol/L hSSTNIGF1R
[10] = test system: Sdc1, IGF1R, ITGAV cell surface expression in UM-SCC47 cells; assay: Immunofluorescent receptor staining of cultured cells; assay type: cell-based, human; conditions: UM-SCC47 cells pretreated 6 hours with 30 μmol/L, compared with vehicle alone
Procedure: as §4

[11] = target: T2, ITGAV and IGF1R pairing in UW-SCC64 PDX tumors (Homo sapiens, UniProt P08069); assay: PLA between IGF1R and ITGAV on tumor sections; assay type: in vivo, nude mice; conditions: pump
T2 construct: from tissue; host or cells: UW-SCC22 and UW-SCC64 PDX tumours, subcutaneous in nude mice
Procedure: (§5) Paraffin-embedded PDX sections, sections of deidentified archival tumors from patients with tonsil carcinoma, or TMAs assembled from patients with deidentified oropharyngeal (TMA-01, TMA-02) or adenoid cystic (TMA-03) carcinoma were deparaffinized and subjected to antigen retrieval by heating in 10 mmol/L sodium citrate (pH 6.0) with 0.05% Tween 20 until boiling and then maintained at 99°C for 20 minutes before cooling to room temperature. The sections were then used for receptor and PLA staining, as described above. Fluorescent images were acquired using either a Zeiss PlanAPOCHROMAT 20X objective (0.8 NA) or 40X (1.4 NA) and a Zeiss AxioCam Mrm CCD camera on a Zeiss Axio Imager.M2 microscopy system. CellProfiler 3.1.5 (Carpenter Lab, Broad Institute of Harvard and MIT) was used to quantify nuclei and PLA signals with threshold limits based on relevant comparative controls. Cell Profiler software analysis was checked by direct comparison with visual quantification of PLA dots or DAPI-stained nuclei in test images to accurately quantify PLA dots per cell and to exclude false or background fluorescence. The specificity of the antibodies used and the concentrations of PLA reagents used were optimized on test samples before use on experimental sections.

[12] = target: T3, ITGAV and IGF1R pairing in UW-SCC22 PDX tumors (Homo sapiens, UniProt P08069); assay: PLA between IGF1R and ITGAV on tumor sections; assay type: in vivo, nude mice; conditions: 4 weeks
T3 construct: from tissue; host or cells: UW-SCC22 and UW-SCC64 PDX tumours, subcutaneous in nude mice
Procedure: as §5

IGF1R in HaCat cells = target: T4, IGF1R in HaCat cells (Homo sapiens, UniProt P08069); assay: IGF1R activation (pY1131) by immunoprecipitation and Western blot; assay type: cell-based; conditions: 3 hours, 100 ng/mL DES(1–3)IGF1, 30 μmol/L hSSTNIGF1R
T4 construct: endogenous in cells; host or cells: HaCat
Procedure: (§6) Immunoprecipitation of IGF1R with or without competing SSTN peptide was carried out as described previously ([18, 19]) using 0.5–1.0 mg of input/sample and lysis buffer supplemented with HALT protease and phosphatase inhibitor cocktail (Thermo Fisher Scientific).

IGF1R in UM-SCC47 cells = target: T5, IGF1R in UM-SCC47 cells (Homo sapiens, UniProt P08069); assay: as above; assay type: cell-based; conditions: 3 hours, 100 ng/mL DES(1–3)IGF1, 30 μmol/L hSSTNIGF1R
T5 construct: constitutively active IGF1R is identified in UW-SCC47 cells by staining for pY1131; endogenous in cells; host or cells: UM-SCC47
Procedure: as §6

UW-SCC22 HNSCC PDX = assay: PDX tumor growth in nude mice; assay type: in vivo; conditions: 4 weeks; for reduction of tumor growth compared with controls: P < 0.001
Excerpt: (§7) Animal studies were approved by the University of Wisconsin–Madison Institutional Animal Care and Use Committee in accordance with the NIH guidelines. UW-SCC22 or UW-SCC64 PDXs derived from head and neck tumors ([31, 32]) were provided by Wisconsin Head and Neck Cancer SPORE (https://hn-spore.wisc.edu). Minced tissue isolated from host mice was subcutaneously injected into both flanks of 6–8 weeks old female, athymic Foxn1^nu outbred nude mice (Harlan Laboratories). After 1 week, animals were randomized and surgically implanted with Alzet (Durect Corp.) osmotic pumps (Model 2004) delivering 0.25 μL/hour of either PBS or PBS containing 4 mmol/L hSSTNIGF1R for 4 weeks. Animals were humanely sacrificed, bled, and tumors were removed and fixed in 4% paraformaldehyde before paraffin embedding and sectioning.

UW-SCC64 PDX = assay: PDX tumor growth in nude mice; assay type: in vivo; conditions: peptide delivered by the pump only, P < 0.001
Excerpt: as §7

[13] = allows use as a therapeutic agent in vivo; cited from earlier work
[14] = test system: ASK-1 in UW-SCC64 PDX tumors; assay: pT845-ASK1 staining of tumor sections; assay type: in vivo, nude mice; conditions: as early as the 3-day timepoint
Procedure: as §5

[15] = test system: ASK-1 in UW-SCC22 PDX tumors; assay: pT845-ASK1 staining of tumor sections; assay type: in vivo, nude mice; conditions: UW-SCC22 tumors treated by injection or pump for 4 weeks
Procedure: as §5

T2 sequence (P08069 31-736 limits assumed): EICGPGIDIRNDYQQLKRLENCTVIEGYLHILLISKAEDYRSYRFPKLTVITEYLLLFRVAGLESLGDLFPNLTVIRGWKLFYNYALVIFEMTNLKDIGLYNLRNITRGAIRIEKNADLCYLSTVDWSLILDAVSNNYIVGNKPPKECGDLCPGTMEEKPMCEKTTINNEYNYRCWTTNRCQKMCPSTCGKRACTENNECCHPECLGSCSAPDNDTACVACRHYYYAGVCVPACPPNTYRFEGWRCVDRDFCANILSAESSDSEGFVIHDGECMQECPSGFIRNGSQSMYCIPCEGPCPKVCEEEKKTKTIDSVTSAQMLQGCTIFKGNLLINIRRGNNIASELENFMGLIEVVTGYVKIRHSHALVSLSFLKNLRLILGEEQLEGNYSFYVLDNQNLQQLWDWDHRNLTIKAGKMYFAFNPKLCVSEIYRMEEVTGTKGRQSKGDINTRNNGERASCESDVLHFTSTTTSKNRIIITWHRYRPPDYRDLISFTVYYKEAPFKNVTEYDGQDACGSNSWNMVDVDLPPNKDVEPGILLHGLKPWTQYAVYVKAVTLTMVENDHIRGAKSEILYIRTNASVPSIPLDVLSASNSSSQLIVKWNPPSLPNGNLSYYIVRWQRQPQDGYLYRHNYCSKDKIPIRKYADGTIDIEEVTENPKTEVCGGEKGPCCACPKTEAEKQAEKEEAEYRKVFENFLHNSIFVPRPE
T3 sequence (P08069 31-736 limits assumed): as above
T5 sequence (P08069 31-1367): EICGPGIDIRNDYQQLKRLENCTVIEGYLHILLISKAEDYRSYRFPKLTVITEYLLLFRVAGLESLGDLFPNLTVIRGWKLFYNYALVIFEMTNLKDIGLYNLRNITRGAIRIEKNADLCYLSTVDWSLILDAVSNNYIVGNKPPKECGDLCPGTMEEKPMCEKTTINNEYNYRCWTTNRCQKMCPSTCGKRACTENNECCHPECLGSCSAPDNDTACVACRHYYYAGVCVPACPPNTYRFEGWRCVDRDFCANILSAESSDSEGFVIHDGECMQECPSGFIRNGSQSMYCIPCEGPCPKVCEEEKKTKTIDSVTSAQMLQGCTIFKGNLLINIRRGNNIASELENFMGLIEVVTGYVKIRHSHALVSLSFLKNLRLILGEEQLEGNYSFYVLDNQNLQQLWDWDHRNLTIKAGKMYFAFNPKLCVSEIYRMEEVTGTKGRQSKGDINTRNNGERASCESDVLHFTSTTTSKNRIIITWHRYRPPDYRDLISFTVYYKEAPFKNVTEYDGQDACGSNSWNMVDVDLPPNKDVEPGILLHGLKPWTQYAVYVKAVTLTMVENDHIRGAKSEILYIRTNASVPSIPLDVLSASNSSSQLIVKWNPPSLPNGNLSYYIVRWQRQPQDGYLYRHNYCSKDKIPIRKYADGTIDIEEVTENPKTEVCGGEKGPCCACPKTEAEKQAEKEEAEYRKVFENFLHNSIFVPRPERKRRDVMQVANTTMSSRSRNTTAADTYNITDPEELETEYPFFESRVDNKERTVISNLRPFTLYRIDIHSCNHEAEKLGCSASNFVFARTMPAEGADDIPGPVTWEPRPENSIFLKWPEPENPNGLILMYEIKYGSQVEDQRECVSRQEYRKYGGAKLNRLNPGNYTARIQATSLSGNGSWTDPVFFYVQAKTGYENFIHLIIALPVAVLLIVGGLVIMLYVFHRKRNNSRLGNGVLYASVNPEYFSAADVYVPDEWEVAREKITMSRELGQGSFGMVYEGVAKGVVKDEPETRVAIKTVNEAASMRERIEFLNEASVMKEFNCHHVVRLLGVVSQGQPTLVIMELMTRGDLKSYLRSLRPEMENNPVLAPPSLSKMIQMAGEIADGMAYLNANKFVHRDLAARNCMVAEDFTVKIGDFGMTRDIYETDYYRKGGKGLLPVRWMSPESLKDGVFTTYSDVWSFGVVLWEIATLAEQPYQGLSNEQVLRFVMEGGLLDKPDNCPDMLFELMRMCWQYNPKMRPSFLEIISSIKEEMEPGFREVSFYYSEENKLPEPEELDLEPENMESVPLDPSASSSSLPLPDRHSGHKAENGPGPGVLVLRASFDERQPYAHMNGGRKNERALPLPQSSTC
T4 sequence (P08069 31-1367): as above
T1 sequence (P08069 31-736 limits assumed, one chain of several): as the sequence (P08069 31-736 limits assumed) above

## CCOC(=O)c1c2c3c(cccc3[nH]c1=O)C(=O)c1ccccc1-2 [NQD1, NQDI-1]
UM-SCC47 cells [1]; UM-SCC47, 24 hours, NQD1 up to 30 μmol/L with 30 μmol/L SSTNIGF1R, CellTiter-GLO
  restoration of cell growth in the SSTN-treated cells: 80%
UM-SCC47 cells [2]
  caspase 3 activation induced by 30 μmol/L SSTNIGF1R: gradually reduce

## inactive mSSTNIGF1R: Inactive control peptide, amino acids 94–119 of mouse Sdc1 (AGEKPEEGEPVLHVEAEPGFTARDKE; UniProt P18828 94-119, looked up, fragment) [reference compound]
UM-SCC47 cells [1]; UM-SCC47, up to 6 days, concentration range, CellTiter-GLO
  effect on cell numbers: no effect
SCC25 cells [3]; SCC25, up to 6 days, concentration range, CellTiter-GLO
  effect on cell numbers: no effect

## LPAGEKPEEGEPVLHVEAEPGFTARDKE [active mSSTNIGF1R]
UM-SCC47 cells [1]
  IC50: 1 to 10 µM
SCC25 cells [3]
  IC50: 1 to 10 µM
HaCaT keratinocytes
  cell growth: unaffected
Normal HTE cells
  cell growth: unaffected
SCC90 HNSCC cell line
  cell growth: reduced growth
[4]
  cell growth: unaffected
UM-SCC1 HNSCC cell line
  cell growth: reduced growth
SCC6 HNSCC cell line
  cell growth: reduced growth
TU-138 HNSCC cell line
  cell growth: reduced growth
UD-SCC2 HNSCC cell line
  cell growth: reduced growth

## STSTLPAGEGPKEGEAVVLPEVEPGLTAREQE [hSSTNIGF1R]
HaCaT keratinocyte
  change in apoptotic markers (antibody array): little or no response
UM-SCC47 cells [5]
  change in apoptotic markers (antibody array): significant increases in activated caspase 3 and PARP, and reduced levels of survivin and phosphorylated Erk, Akt, and Bad
SCC25 cells [6]
  change in apoptotic markers (antibody array): significant increases in activated caspase 3 and PARP, and reduced levels of survivin and phosphorylated Erk, Akt, and Bad
NOK
  change in apoptotic markers (antibody array): little or no response
HTE
  change in apoptotic markers (antibody array): little or no response
Serum IGF1 ELISA; animals bearing UW-SCC22 tumors
  serum levels of IGF1: no change
Serum IGF1 ELISA; animals bearing UW-SCC64 tumors
  serum levels of IGF1: no change
Serum IGF1 ELISA; serum of mice bearing UW-SCC22, saline control 34.8 ± 1.0
  IGF1 (ng/mL) ± SD: 34.6 ± 0.9 ng/mL
Serum IGF1 ELISA; serum of mice bearing UW-SCC64, saline control 34.0 ± 0.9
  IGF1 (ng/mL) ± SD: 33.7 ± 1.1 ng/mL
[7]
  PLA signal, colocalization of IGF1R and ITGAV: signal is lost
[8]
  level at time molar: 13 µM
[9]
  active ASK1 (pT845), pp38MAPK, and pJNK: increased
[10]
  cell surface expression of Sdc1, IGF1R, ITGAV: no change
[11]; UW-SCC64 tumors after 3-day treatment
  reduction of ITGAV and IGF1R pairing (PLA): 80%
[11]; UW-SCC64 tumors, 5-week treatment
  ITGAV and IGF1R pairing (PLA): essentially abolished
[12]; plasma concentration 13 μmol/L (injection), versus saline-treated tumors
  reduction of ITGAV and IGF1R pairing (PLA): 90%
[12]; plasma concentration 32 μmol/L, pump-mediated delivery
  ITGAV and IGF1R pairing (PLA): reduced to nearly undetectable levels
IGF1R in HaCat cells
  IGF1-mediated activation of IGF1R (pY1131): unaffected
IGF1R in UM-SCC47 cells
  IGF1-mediated activation of IGF1R (pY1131): blocked
UW-SCC22 HNSCC PDX; 4.3 mg/kg/day, Alzet pump
  reduction of tumor growth compared with controls: approximately 94%
UW-SCC22 HNSCC PDX; 4.3 mg/kg/day, constant infusion via Alzet pump, start 102 ± 21 mm^3, saline 2,767 ± 631 mm^3
  tumor size after treatment: 270 ± 49 mm^3
UW-SCC22 HNSCC PDX; 4.3 mg/kg/day, twice weekly subcutaneous injection
  tumor size after treatment: 664 ± 138 mm^3
UW-SCC22 HNSCC PDX; twice weekly subcutaneous injection
  reduction of tumor growth compared with controls: 79%
UW-SCC64 PDX
  reduction of tumor growth compared with saline-treated controls: 85%
[13]
  half-life: ~24 h
[14]
  pT845-ASK1 staining: pT845 staining indicative of ASK-1 activation
[15]
  pT845-ASK-1 staining: Positive staining
